# According to paper PMC6017830, “Furan- and Thiophene-2-Carbonyl Amino Acid Derivatives Activate Hypoxia-Inducible Factor via Inhibition of Factor Inhibiting Hypoxia-Inducible Factor-1” (Molecules : A Journal of Synthetic Chemistry and Natural …, 2018):
# Entries after “also recorded” stand apart in the source; their conditions may differ.
# What was measured:
# [1] = system: CA9 mRNA in SK-N-BE(2)c cells; test: Quantitative RT-PCR of HIF target gene CA9; assay type: cell-based, human; details: 100 μM, 3% O2, SK-N-BE(2)c cells
# Experimental: (§1) To confirm transactivation of HIF by our optimized compounds, the expression of HIF target genes was analyzed with quantitative polymerase chain reaction (PCR) in SK-N-BE(2)c cells. We attempted to analyze several HIF target genes including CA9, VEGF-α, EPO, and PHD3, under 3% O2 conditions.
# (§2) Total RNA was extracted from cells using ISOGEN (Nippon Gene, Tokyo, Japan). cDNA syntheses were performed using random hexamer primers and SuperScript II Reverse Transcriptase (Thermo Fisher Scientific) following the manufacturer’s instructions. Quantitative reverse transcription polymerase-chain reaction (RT-PCR) analysis was performed as follows: amplification was done in an initial denaturing step at 96 °C for 2 min, followed by 35 cycles of PCR (96 °C for 1 min, 57 °C for 30 s, 72 °C for 30 s) using recombinant Taq polymerase (Takara, Otsu, Japan) with the respective primer pairs. For human carbonic anhydrase IX (CA9), 5′-CCTGGCTGCTGGTGACATCC-3′ and 5′-AAGGAAGTGGCATAATGAGC-3′. […] Data were analyzed using the comparative Ct method as means of relative quantification, and were normalized to an endogenous reference (β-actin) and relative to a calibrator (normalized Ct value obtained from cells treated with vehicle only). Data were expressed as 2^−ΔΔCt.
# [2] = system: HIF-1α mRNA in SK-N-BE(2)c cells; test: Quantitative RT-PCR of HIF-1α mRNA; assay type: cell-based, human; details: 100 μM, 3% O2, SK-N-BE(2)c cells
# Experimental: as §1, §2
# [3] = system: HIF-HRE transcriptional activity in SKN:HRE-MLuc cells (reflects FIH-1 inhibition); test: HIF activity under hypoxia, HRE-MLuc luciferase reporter assay; assay type: cell-based, human; details: for activation at 100 µM / minimal effective concentration: Homo sapiens, SKN:HRE-MLuc cells, 3% O2, 24 h; for activation at 100 µM: read-out: 100 μM Activity (RLU intensity at 100 μM stimulation compared with the positive control DMOG); for minimal effective concentration: doses 100, 25, 6.3, 1.6 μM, DMOG 100 μM as positive control, read-out: 25% Activity (lower dose limit showing 25% of the RLU intensity of the positive control DMOG); for HIF activity (HRE-MLuc reporter), result in words: hypoxic conditions (3% O2), 24 h, reference compounds at 100 μM
# Experimental: To evaluate HIF transactivation following FIH-1 inhibition […], we employed a luciferase reporter assay system in the human neuroblastoma cell line SK-N-BE(2)c. […] Hereafter these HRE reporter cells were designated SKN:HRE-MLuc cells.
# SKN:HRE-MLuc (4 × 10^4) were incubated for 24 h on a 96 well culture plate. The medium was replaced with complete media and the test compounds (100, 25, 6.3 and 1.6 μM). DMSO (0.1%) was used as a vehicle control, DMOG (100 μM) and FG4592 (100 μM) were used as a PHDs or FIH-1 inhibitor. The cells were incubated for 24 h under a humidified atmosphere of 5% CO2 and 3% O2 at 37 °C. After incubation, the MLuc activity in culture media was measured with luciferase substrate (Takara, Shiga, Japan) by LB960 luminometer (Berthold, Wildbad, Germany). The HIF activity was calculated as the MLuc intensity, based on the vehicle and positive controls. The lower limit dose out of 100 μM, 25 μM, 6.3 μM, 1.6 μM was listed in Table 1 and Table 2, where 25% RLU intensity was measured using DMOG as a positive control.
# SKN:HRE-MLuc cells = test: MTS assay (cellular toxicity); assay type: cell-based, human; details: for IC50: Homo sapiens, MTS assay
# Source text: Next, we evaluated the activation of HIF by furan- and thiophene-2-carbonyl amino acid derivatives using the evaluation methods described above. Simultaneously, we investigated cellular toxicity for those derivatives with a 3-(4,5-dimethylthiazol-2-yl)-5-(3-carboxymethoxyphenyl)-2-(4-sulfophenyl)-2H-tetrazolium (MTS) assay. To indicate cellular membrane permeability, the partition coefficients, which are frequently represented by calculated logP (clogP) are listed in Table 1 and Table 2.
# Cellular toxicity was measured using the CellTiter 96® Aqueous One Solution Cell Proliferation Assay kit (Promega, Madison, WI, USA). The cells were stimulated with each compound and treated with the CellTiter solution. After incubation for 3 h, the absorbance of the solutions at 492 nm was measured by Multiskan FC (Thermo Fisher Scientific, Waltham, MS, USA). As a negative control, wells with culture media were used. Wells treated with DMSO (0.1%) were used as a positive control. The IC50 values were determined using these controls.
# [4] = system: HIF-HRE transcriptional activity in SKN:HRE-MLuc cells (PHD inhibition); test: HIF activity under normoxia, HRE-MLuc luciferase reporter assay; assay type: cell-based, human; details: normoxic conditions, 100 μM, 24 h
# Source text: We next measured HIF transactivity of FIH-1 inhibitors under normoxic conditions to confirm whether these inhibitors stabilized HIF via inhibiting PHD. Under normoxic conditions, inhibition of PHD dramatically activated HRE reporter. In contrast, when PHD was inhibited under hypoxic conditions, the rate of activation of the HRE reporter was low because hypoxia already partially activated the HRE reporter. The compounds showing HIF activation under hypoxic conditions (compounds 7, 9–11, 15–18, 28, 30, and 38) were evaluated by the luciferase assays in SKN:HRE-MLuc cells under normoxic conditions (Figure 6).
# SKN:HRE-MLuc (4 × 10^4) were incubated for 24 h on a 96 well culture plate. The medium was replaced with complete media and the tested compounds (100 μM). DMSO (0.1%) was used as a negative control, and DMOG (100 μM) was used as a positive control. The cells were incubated for 24 h under a humidified atmosphere of 5% CO2 at 37 °C. After incubation, the MLuc activity in culture media was measured with the method descried above.
# [5] = system: HIF-HRE transcriptional activity in SKN:HRE-MLuc cells (reflects FIH-1 inhibition); test: HIF activity under hypoxia, HRE-MLuc luciferase reporter assay; assay type: cell-based, human; details: 100 μM; normoxic or hypoxic (3% O2), control or FIH-1 siRNA transfectants, Figure 3c (A vs E, F, G, H)
melting point [°C],Compound,"CA9 mRNA expression, result in words [1]","HIF-1α mRNA level, result in words [2]",activation at 100 µM [3] [%],minimal effective concentration [3] [µM],IC50 (SKN:HRE-MLuc cells) [µM],"HIF transactivation (HRE-MLuc reporter), result in words [4]","HIF activity (HRE-MLuc reporter), result in words [3]","HIF stabilization activity (HRE-MLuc reporter), result in words [5]","Cellular toxicity in the MTS assays, result in words (SKN:HRE-MLuc cells)"
150 to 152,"COC(=O)[C@H](Cc1c[nH]c2ccccc12)NC(=O)c1cc(-c2ccccc2)cs1 [Compound 28, (S)-Methyl (4-phenylthiophene-2-carbonyl)tryptophanate]",,,0,25,> 100,did not elicit any HIF transactivation,stabilized HIF and transactivated the HRE-driven MLuc reporter,,
93 to 96,"COC(=O)CNC(=O)c1cc(-c2ccccc2)cs1 [Compound 26, Methyl (4-phenylthiophene-2-carbonyl)glycinate]",,,0,,> 100,,,,
145 to 149,"COC(=O)[C@@H](Cc1c[nH]c2ccccc12)NC(=O)c1cc(-c2ccccc2)cs1 [Compound 29, (R)-Methyl (4-phenylthiophene-2-carbonyl)tryptophanate]",,,0,,> 100,,,,
183 to 185,"COC(=O)CNC(=O)c1ccc(-c2ccc(-c3ccccc3)cc2)s1 [Compound 31, Methyl (5-((1,1′-biphenyl)-4-yl)thiophene-2-carbonyl)glycinate]",,,0,,> 100,,,,
94 to 96,"CCOC(=O)[C@H](Cc1ccccc1)NC(=O)c1cc(-c2ccccc2)cs1 [Compound 27, (S)-Ethyl (4-phenylthiophene-2-carbonyl)phenylalaninate]",,,2,,> 100,,,,
176 to 178,"COC(=O)[C@H](Cc1ccc(O)cc1)NC(=O)c1cc(-c2ccccc2)cs1 [Compound 30, (S)-Methyl (4-phenylthiophene-2-carbonyl)tyrosinate]",,,0,6.3,75,did not elicit any HIF transactivation,stabilized HIF and transactivated the HRE-driven MLuc reporter,,showed cellular toxicity

# More lines, now with the values behind:
Compound,melting point [°C],"CA9 mRNA expression, result in words [1]","HIF-1α mRNA level, result in words [2]",activation at 100 µM [3] [%],minimal effective concentration [3] [µM],IC50 (SKN:HRE-MLuc cells) [µM],"HIF transactivation (HRE-MLuc reporter), result in words [4]","HIF activity (HRE-MLuc reporter), result in words [3]","HIF stabilization activity (HRE-MLuc reporter), result in words [5]","Cellular toxicity in the MTS assays, result in words (SKN:HRE-MLuc cells)"
"COC(=O)[C@H](Cc1c[nH]c2ccccc12)NC(=O)c1ccc(C)o1 [Compound 9, (S)-Methyl (5-methylfuran-2-carbonyl)tryptophanate]",,significantly elevated,slightly suppressed by DMOG treatment but not by treatment with compound 9,22,25,> 100,,,,
"COC(=O)[C@H](Cc1ccccc1)NC(=O)c1ccc(C)o1 [Compound 7, (S)-Methyl (5-methylfuran-2-carbonyl)phenylalaninate]",,,,22,25,> 100,did not elicit any HIF transactivation,stabilized HIF and transactivated the HRE-driven MLuc reporter,,
"COC(=O)CNC(=O)C(=O)OC [DMOG, dimethyloxalyl glycine, reference compound]",,,slightly suppressed,,,,,,higher HIF stabilization activity,
"COC(=O)[C@H](Cc1c[nH]c2ccccc12)NC(=O)c1cc2ccccc2o1 [Compound 38, (S)-Methyl (benzofuran-2-carbonyl)tryptophanate]",,,,25,25,> 100,did not elicit any HIF transactivation,stabilized HIF and transactivated the HRE-driven MLuc reporter,,
"Cc1nc(C(=O)NCC(=O)O)c(O)c2ccc(Oc3ccccc3)cc12 [FG4592, reference compound]",,,,,,,stabilized HIF compared with vehicle-treated cells; also recorded: showed significant HRE reporter activity,only slightly stabilized HIF,,
